Among the test systems are 786-0 renal; ACHN renal; COLO 205 colon; DU-145 prostate; HCT-15 colon; HT29 colon; IGROV1 ovarian; MOLT-4 leukemia; NCI-H226 lung; NCI-H23 lung; NCI-H522 lung; NCI/ADR-RES ovarian; OVCAR-4 ovarian; OVCAR-8 ovarian; RPMI-8226 leukemia; SR leukemia; TK-10 renal; UACC-257 melanoma; RXF 393 renal.
What all share (assay): NCI-60 cell line screen, 48 h

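Growth conditions: 96-well plates. Treatment: test compound, 48 hours, 5 concentrations. Analysis: linear interpolation between bracketing concentrations; unreached endpoints set to highest concentration. TGI denotes the concentration required for complete inhibition of growth.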

With `CN(Cc1cnc2nc(N)nc(N)c2n1)c1ccc(C(=O)NCCS(=O)(=O)O)cc1`, the TGI in the test with 786-0 renal, with ACHN renal, in the test with COLO 205 colon, in the test on DU-145 prostate, with HCT-15 colon and with HT29 colon was more than 100 µM throughout. Besides, the TGI in the test on IGROV1 ovarian, in the test with MOLT-4 leukemia, with NCI-H226 lung, with NCI-H23 lung, in the test with NCI-H522 lung and with NCI/ADR-RES ovarian was more than 100 µM throughout. Besides, the TGI with OVCAR-4 ovarian, in the test on OVCAR-8 ovarian, in the test with RPMI-8226 leukemia, in the test with SR leukemia, in the test on TK-10 renal and in the test with UACC-257 melanoma was more than 100 µM each time.
As for `CCN(CC)c1ccc2cc(C(N)=O)c(=N)oc2c1`, the TGI with 786-0 renal, in the test with ACHN renal, in the test on COLO 205 colon, with DU-145 prostate, in the test with HCT-15 colon and in the test with HT29 colon was more than 100 µM in each case. In addition, the TGI with IGROV1 ovarian is 80.7 µM; in the test with MOLT-4 leukemia it was more than 100 µM; in the test with NCI-H226 lung it was more than 100 µM; in the test with NCI-H23 lung, more than 100 µM; in the test on NCI/ADR-RES ovarian, more than 100 µM; in the test on OVCAR-4 ovarian, 74.1 µM. Also, the TGI in the test on OVCAR-8 ovarian, with RPMI-8226 leukemia, in the test with RXF 393 renal, in the test with SR leukemia and in the test with UACC-257 melanoma was more than 100 µM in each case.
With `COc1cc2c(cc1OC)[C@@H]1[C@H](C#N)C(=O)C(C)(C)N1CC2`, the TGI with 786-0 renal, in the test with ACHN renal, in the test with COLO 205 colon, with DU-145 prostate, with HCT-15 colon and in the test with HT29 colon was more than 100 µM throughout. In addition, the TGI in the test with IGROV1 ovarian, in the test on MOLT-4 leukemia, in the test on NCI-H226 lung, in the test on NCI-H23 lung, with NCI-H522 lung and in the test with NCI/ADR-RES ovarian was more than 100 µM in each case. Besides, the TGI with OVCAR-4 ovarian, in the test on OVCAR-8 ovarian, in the test with RPMI-8226 leukemia, in the test on SR leukemia, with TK-10 renal and in the test with UACC-257 melanoma was more than 100 µM in each case.
On to `O=C1N(C2CCCCC2)C(=O)N1C1CCCCC1`, for which the TGI with 786-0 renal was more than 67.6 µM; with ACHN renal, 12 µM; in the test on COLO 205 colon it was 16.2 µM; in the test with DU-145 prostate, more than 58.9 µM; in the test with HCT-15 colon it was 22.2 µM; in the test with HT29 colon, 25.3 µM. For the same compound, the TGI was more than 100 µM with IGROV1 ovarian; 10.2 µM in the test with MOLT-4 leukemia; 11.3 µM in the test with NCI-H226 lung; 23.8 µM in the test on NCI-H23 lung; 3.66 µM with NCI-H522 lung; 14.9 µM in the test with NCI/ADR-RES ovarian. Moreover, the TGI with OVCAR-4 ovarian amounted to 31.7 µM; in the test with OVCAR-8 ovarian it was 16.6 µM; with RPMI-8226 leukemia it was 0.935 µM; in the test with SR leukemia, 8.83 µM; in the test with TK-10 renal, 38.5 µM; in the test with UACC-257 melanoma it was 19.4 µM.
Turning to `CN1CCc2cc3c(c4c2C1C(O)c1ccccc1-4)OCO3` (stereo unspecified), the TGI with 786-0 renal is 62.2 µM; in the test with ACHN renal, more than 100 µM; in the test on COLO 205 colon it was more than 100 µM; in the test on DU-145 prostate, more than 100 µM; in the test with HCT-15 colon, 20.3 µM; in the test on HT29 colon, 18.3 µM. Further, the TGI turned out to be 26 µM in the test with IGROV1 ovarian; 37.6 µM in the test with MOLT-4 leukemia; 48.2 µM in the test on NCI-H23 lung; 13.7 µM in the test on NCI-H522 lung; 53.9 µM in the test with NCI/ADR-RES ovarian; 29.5 µM with OVCAR-4 ovarian. For the same compound, the TGI with OVCAR-8 ovarian is 50.5 µM; in the test on RPMI-8226 leukemia it was 32.6 µM; in the test with RXF 393 renal it was 10.8 µM; in the test with SR leukemia, 28.8 µM; with TK-10 renal, more than 100 µM; in the test on UACC-257 melanoma, 26.3 µM.
For `O=C1NC(N/N=C/c2ccccc2)=N/C1=C\c1ccco1`, the TGI in the test with 786-0 renal was 55.6 µM; in the test with ACHN renal it was 55.4 µM; with COLO 205 colon it was more than 100 µM; in the test on DU-145 prostate it was more than 100 µM; in the test with HCT-15 colon it was more than 100 µM; with HT29 colon it was more than 100 µM. In addition, the TGI is 57.4 µM in the test on IGROV1 ovarian; more than 100 µM in the test on MOLT-4 leukemia; more than 100 µM with NCI-H226 lung; 95.6 µM in the test with NCI-H23 lung; 95.2 µM with NCI-H522 lung; more than 100 µM in the test with NCI/ADR-RES ovarian. Further, the TGI with OVCAR-4 ovarian is more than 100 µM; in the test with OVCAR-8 ovarian, 34.9 µM; with RPMI-8226 leukemia it was more than 100 µM; in the test on RXF 393 renal it was 80.4 µM; in the test on TK-10 renal it was 92.3 µM; with UACC-257 melanoma it was more than 100 µM.
With `N#Cc1cccc2c1Sc1ccccc1N2`, the TGI with 786-0 renal was 67.2 µM; in the test with ACHN renal, more than 100 µM; in the test with COLO 205 colon it was 60.2 µM; in the test with DU-145 prostate it was more than 100 µM; with HCT-15 colon, more than 100 µM; in the test with HT29 colon, more than 100 µM. The TGI in the test on IGROV1 ovarian is more than 100 µM; in the test with MOLT-4 leukemia, 85.7 µM; in the test with NCI-H226 lung it was more than 100 µM; in the test with NCI-H23 lung, more than 100 µM; in the test on NCI/ADR-RES ovarian, more than 100 µM; with OVCAR-8 ovarian, more than 100 µM. For the same compound, the TGI in the test on RPMI-8226 leukemia is more than 100 µM; with RXF 393 renal, 33.7 µM; in the test with SR leukemia, more than 100 µM; in the test on TK-10 renal, 75.8 µM; with UACC-257 melanoma, more than 100 µM.
With `O=C(NC(=S)Nc1ccc(Br)cc1)c1ccc2c(c1)Sc1ccccc1S2`, the TGI was 30.6 µM in the test on 786-0 renal; 34.2 µM in the test on ACHN renal; more than 100 µM in the test with COLO 205 colon; 32.4 µM in the test on DU-145 prostate; more than 100 µM in the test on HCT-15 colon; 95.1 µM with HT29 colon. Also, the TGI was 30.2 µM in the test with IGROV1 ovarian; 26.7 µM with MOLT-4 leukemia; 47.7 µM with NCI-H226 lung; 45.4 µM in the test with NCI-H23 lung; 52.6 µM with NCI-H522 lung; 55.9 µM with NCI/ADR-RES ovarian. For the same compound, the TGI with OVCAR-4 ovarian is 33.5 µM; in the test with OVCAR-8 ovarian, 34.7 µM; in the test with SR leukemia it was 35.5 µM; with TK-10 renal, 30.9 µM; in the test with UACC-257 melanoma, 54.5 µM.

The values are drawn from PubChem BioAssay (NCI).
